Results published in article PMC3223204, “Implantation Serine Proteinase 1 Exhibits Mixed Substrate Specificity that Silences Signaling via Proteinase-Activated Receptors” (PLoS ONE, 2011).
“Also recorded” adds a separate entry of the source. Counter-ions that a name gives are not always drawn. Like-named read-outs stand apart in the source and are kept apart here. Non-standard residues stand in square brackets, D forms with d. Residues, ends and D or L forms follow the SMILES beside them. *: point of attachment. pNA = O=[N+]([O-])c1ccc(N*)cc1; Tos = Cc1ccc(S(=O)(=O)*)cc1; Bz = O=C(c1ccccc1)*

T1: recombinant ISP1 (Mus musculus, UniProt Q924N9)
T1 construct: Myc (C); His6 (C); made in house; host or cells: Pichia pastoris SMD1168
T1 sequence (Q924N9 31-274 limits assumed): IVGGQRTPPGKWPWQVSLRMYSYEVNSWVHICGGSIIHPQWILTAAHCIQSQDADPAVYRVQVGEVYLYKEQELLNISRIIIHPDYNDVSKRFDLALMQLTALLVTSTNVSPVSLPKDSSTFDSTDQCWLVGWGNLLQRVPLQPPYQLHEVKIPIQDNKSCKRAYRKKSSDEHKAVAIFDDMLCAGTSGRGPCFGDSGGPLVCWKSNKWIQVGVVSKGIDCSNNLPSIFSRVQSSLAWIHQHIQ

B1: Recombinant human SLPI: recombinant human Secretory Leukocyte Protease Inhibitor (protein, UniProt P03973 26-132, looked up)
Antileukoproteinase: SGKSFKAGVCPPKKSAQCLRYKKPECQSDWQCPGKKRCCPDTCGIKCLDPVDTPNPTRRKPGKCPVTYGQCLMLNPPNFCEMDGQCKRDLKCCMGMCGKSCVSPVKA
B2: Soybean Trypsin Inhibitor: general serine proteinase inhibitor (protein, UniProt P01070 25-205, looked up)
Trypsin inhibitor A: DFVLDNEGNPLENGGTYYILSDITAFGGIRAAPTGNERCPLTVVQSRNELDKGIGTIISSPYRIRFIAEGHPLSLKFDSFAVIMLCVGIPTEWSVVEDLPEGPAVKIGENKDAMDGWFRLERVSDDEFNNYKLVFCPQQAEDDKCGDIGISIDHDDGTRRLVVSKNKPLVVQFQKLDKESL

Legend:
[1] = target: T1, recombinant ISP1; assay: Chromogenic substrate kinetics of recombinant ISP1; assay type: biochemical; settings: for Hydrolysis of chromogenic substrate by rISP1: result in words; for Michaelis Menton Constant (Km) / Turnover No. (kcat) / Km: substrate of recombinant ISP1, 25 mM Tris.Cl pH 8.0, room temperature; for Turnover No. (kcat): [E] 6.5 uM; for Km: read-out: Michaelis Menton Constant (Km)
Experimental: (§1) p-Nitroanilide substrates, Valine-Proline-Arginine-Amino methyl coumarin (VPR-AMC), Benzamidine Hydrochloride, TLCK (N -p-tosyl-L-lysine chloromethyl ketone), APMSF (4-Amidino-Phenyl)-Methane-Sulfonyl Fluoride), Trypsin Soybean Inhibitor (TSI) and Gabexate mesylate were obtained from Sigma Aldrich and Co. Oakville, ON Canada. Chromogenic assays were performed using the p-Nitroanilide/methyl-naphthylamide conjugated peptidic substrates. The reaction conditions used were: 25 mM Tris.Cl (pH 8.0) buffer with 10 mM EDTA reaction buffer, in a total reaction volume of 0.5 mL including varying concentrations of the substrates and enzyme sample. The reactions were done at room temperature in a glass cuvette (1 cm path length), and scanned at wavelength of 405 nm (in case of p-nitroanilide conjugated substrates) and 540 nm (in case of methyl-naphthylamide substrates) using a spectrophotometer. 1 Unit of enzyme is defined as the amount of enzyme capable of the breakdown of 1 micromole of substrate/min.
(§2) The catalytic activity of recombinant ISP1 with various small chromogenic peptide substrates was characterized by measuring enzyme cleavage at differing substrate concentrations and plotting enzyme activity [V] vs. substrate concentration [S] and calculating Michaelis Menten constant (Km). The Km was calculated using the Michaelis Menten equation (Km = [S] at ½ Vmax). Sigma plot was used for plotting the values obtained and determining Michaelis Menten Constant (Km). Inhibition of proteolytic activity of recombinant ISP1 was determined by measuring enzyme activity in the presence of varying concentrations of serine proteinase inhibitors. 2 mM BAPNA and 150 uM VPR-AMC were employed for enzyme assays in these inhibition studies. Sigma plot was used for plotting the values obtained in order to determine dissociation constant (Ki). Enzyme concentration [E] used for these experiments was 6.5 uM. This value was employed for calculating turnover number (kcat) and enzyme efficiency represented by kcat/Km ratio.

[2] = target: T1, recombinant ISP1; assay: Inhibition of recombinant ISP1 by general serine proteinase inhibitors; assay type: biochemical; settings: for Effect on enzyme activity of rISP1: 2 mM BAPNA as well as 150 µM VPR-AMC as substrate, result in words; for Ki: read-out: Ki (Apparent Ki)
Experimental: as §1, §2

Row | Molecule | Hydrolysis of chromogenic substrate by rISP1 [1] | Turnover No. (kcat) [1] | Effect on enzyme activity of rISP1 [2] | other results
1 | CC(C)C[C@H](NC(=O)[C@H](N)C(C)C)C(=O)N[C@@H](CCCCN)C(=O)Nc1ccc([N+](=O)[O-])cc1.Cl [Valine-Leucine-Lysinep-nitroanilide, H-D-valine-leucine-lysine p-nitroanilide hydrochloride] (H-[dV]-Leu-Lys-pNA) | no enzyme activity | Nil | – | Michaelis Menton Constant (Km) [1]: Nil
2 | CC(=O)O.Cc1ccc(S(=O)(=O)NCC(=O)N2CCC[C@H]2C(=O)N[C@@H](CCCCN)C(=O)Nc2ccc([N+](=O)[O-])cc2)cc1 [N(p-tosyl)-glycine-proline-lysine p-nitroanilide acetate] (Tos-Gly-Pro-Lys-pNA) | no enzyme activity | Nil | – | Michaelis Menton Constant (Km) [1]: Nil
3 | Cc1ccc(S(=O)(=O)N[C@@H](CCCCN)C(=O)CCl)cc1 [TLCK, N -p-tosyl-L-lysine chloromethyl ketone] | – | – | inhibited the enzyme activity; also recorded: strong inhibitory activity | Ki ([2]; substrate VPR-AMC (0.15 mM)): 30 µM
4 | CC(C)[C@H](N)C(=O)N[C@@H](Cc1ccccc1)C(=O)N[C@@H](CCCCN)C(=O)Nc1ccc([N+](=O)[O-])cc1 [Valine-Phenylalanine-Lysine p-nitroanilide] (H-Val-Phe-Lys-pNA) | no enzyme activity | Nil | – | Michaelis Menton Constant (Km) [1]: Nil
5 | CC(C)[C@H](NC(=O)[C@H](Cc1ccccc1)NC(=O)c1ccccc1)C(=O)N[C@@H](CCCNC(=N)N)C(=O)Nc1ccc([N+](=O)[O-])cc1.Cl [N-Benzoyl-phenylalanine-valine-arginine p-nitroanilide hydrochloride] (Bz-Phe-Val-Arg-pNA) | hydrolyzed | 0.14 s⁻¹ | – | Km [1]: 360 µM
6 | COc1cc(NC(=O)C(CCCNC(=N)N)NC(=O)C(CCCNC(=N)N)NC(=O)C(CCCNC(=N)N)NC(=O)OCc2ccccc2)cc2ccccc12 (stereo not shown) [N-CBZ-arginine-arginine-arginine-4-methoxy naphthylamide] | hydrolyzed | 0.7 s⁻¹ | – | Km ([1]; listed as RRRmN): ~100 µM; Km [1]: 99 µM
7 | C[C@H](N)C(=O)Nc1ccc([N+](=O)[O-])cc1 [Alanine p-nitroanilide] | no reaction | Nil | – | Michaelis Menton Constant (Km) [1]: Nil
8 | O=S(=O)(F)Cc1ccccc1 [PMSF] | – | – | inhibited the enzyme activity; also recorded: strong inhibitory activity | Ki ([2]; substrate VPR-AMC (0.15 mM)): 340 µM
9 | CCOC(=O)c1ccc(OC(=O)CCCCCN=C(N)N)cc1.CS(=O)(=O)O [Gabexate mesylate] | – | – | inhibited the enzyme activity | Effect on enzyme activity of rISP1 ([2]; listed as gabexate mesylate): strong inhibitory activity; Ki ([2]; substrate BAPNA (2 mM)): 1700 µM
10 | Cl.N=C(N)NCCC[C@H](NC(=O)c1ccccc1)C(=O)Nc1ccc([N+](=O)[O-])cc1 [N-Benzoyl Argininep-nitroanilide (BAPNA), N-Benzoyl-L- arginine p-nitroanilide hydrochloride] | hydrolyzed | 2.2 s⁻¹ | – | Km [1]: 610 µM
11 | CC(=O)N[C@@H](CC(C)C)C(=O)N[C@@H](CC(C)C)C(=O)N[C@H](C=O)CCCNC(=N)N [Leupeptin] | – | – | no noticeable effect | Ki (Apparent Ki) ([2]; substrate BAPNA (2 mM)): No inhibition
12 | C[C@H](NC(=O)CCC(=O)O)C(=O)N[C@@H](C)C(=O)N[C@@H](C)C(=O)Nc1ccc([N+](=O)[O-])cc1 [N-Succinyl-alanine-alanine-alanine p-nitroanilide] | no reaction | Nil | – | Michaelis Menton Constant (Km) [1]: Nil
13 | α-1-Antitrypsin: general serine proteinase inhibitor | – | – | inhibited the enzyme activity | Effect on enzyme activity of rISP1 ([2]; listed as α-1 antitrypsin): strong inhibitory activity; Ki ([2]; substrate BAPNA (2 mM)): 2 µM
14 | N=C(N)c1ccccc1 [Benzamidine Hydrochloride] | – | – | no noticeable effect | Ki (Apparent Ki) ([2]; substrate BAPNA (2 mM)): No inhibition
15 | Aprotinin | – | – | no noticeable effect | Ki (Apparent Ki) ([2]; substrate BAPNA (2 mM)): No inhibition
16 | CC[C@H](C)[C@H](NC(=O)c1ccccc1)C(=O)N[C@@H](Cc1ccccc1)C(=O)N[C@@H](CCCCN)C(=O)Nc1ccc([N+](=O)[O-])cc1.Cl [N-Benzoyl-isoleucine-phenylalanine-lysine p-nitroanilide hydrochloride] (Bz-Ile-Phe-Lys-pNA) | hydrolyzed | 3.9 s⁻¹ | – | Km [1]: 9600 µM
17 | CC(C)C[C@H](NC(=O)[C@@H](NC(=O)N[C@@H](Cc1ccccc1)C(=O)O)[C@@H]1CCN=C(N)N1)C(=O)N[C@H](C=O)Cc1ccccc1 [Chymostatin] | – | – | inhibited the enzyme activity | Effect on enzyme activity of rISP1 ([2]; listed as chymostatin): strong inhibitory activity; Ki ([2]; substrate BAPNA (2 mM)): 220 µM
18 | B1 | – | – | no noticeable effect | Ki (Apparent Ki) ([2]; substrate BAPNA (2 mM)): No inhibition
19 | B2 | – | – | inhibited the enzyme activity | Effect on enzyme activity of rISP1 ([2]; listed as trypsin soybean inhibitor): strong inhibitory activity; Ki ([2]; substrate BAPNA (2 mM)): 2.4 µM
